Laboratory results as given in patent EP2265599B1, “CRYSTAL FORM OF PHENYLAMINOPYRIMIDINE DERIVATIVE” (Natco Pharma Limited, priority 2008, dated 2009).

How the values were obtained:
[1] = test system: 4910, 5310 and U87 glioma cells and MDAMB231 and ZR71 breast cancer cells; assay: Western blot analysis for pAKT and pERK (cell line not specified); format: cell-based; details: with and without radiation
Protocol: (§1) Western blot analysis of 4910, 5310 and U87 glioma cells and MDAMB231 and ZR71 breast cancer cells in the presence of specified concentrations of compounds were assessed as per standard protocols. Cells were treated with AN019, AN024 or Temozolomide at the specified concentrations. 24h after treatment, cells were collected and cell lysates extracted. Equal quantities of proteins were fractionated by SDS-PAGE. The fractionated proteins were blotted on to nylon membranes and immunoprobed for AKT, ERK and Pi3k. Breast cancer cell protein isolates were additionally immunoprobed for EGFR, ErbB1, ErbB2 and ErbB3.

K562 = assay: ED50 (po) and therapeutic index in leukemic mice (K562)
[2] = test system: K562 luc human leukemia cells; assay: Drug effectiveness (De) from in vivo luciferase studies; set-up: species or system nude mice
Excerpt: [formula] Where: • Σalive = total number of mice alive per concentration at the end of experiment times photon count, Eluc = total number of mice alive showing luciferase expression per concentration at end of experiment and c represents control untreated animals times photon count and ∑c-initial represents the initial number of animals in control at start of experiment times photon count.

U87 glioma cells = assay: In vitro angiogenic assay (conditioned media on human dermal endothelial cells), U87; format: cell-based; details: with and without radiation
Protocol: (§2) The in vitro angiogenesis of 4910, 5310 and U87 glioma cells and MDAMB231 and ZR71 breast cancer cells in the presence of specified concentrations of compounds were determined as follows, cells (2x10^4/well) were seeded in 8-well chamber slides and were treated with various concentrations of test compounds. After a 24 h incubation period, the conditioned media was removed and added to a 4x 10^4 human dermal endothelial cell (monolayer in 8-well chamber slides) and the human dermal endothelial cells were allowed to grow for 72 h. Cells were then fixed in 3.7% formaldehyde and stained with H&E and photographed.

Baf3M351T = assay: In vivo anti-leukemic activity, blast cell count in blood smears, Baf3M351T implanted nude mice; details: Imatinib 10mg/kg, AN019 20mg/kg, AN024 20mg/kg, oral gavage or ip from day 15; up to day 42
Excerpt: (§3) Blood smears were obtained via the tail vein or via the femoral vein every 6th day and blast cells counted and graphically represented.
(§4) Abdominal swelling and decrease in activity was monitored daily, blood smear taken via the tail vein or the femoral vein every 6th day and H&E stained as per standard protocols. 42 days after implantation, mice were sacrificed and spleens harvested.
(§5) Nude mice were intraperitoneally implanted with Baf3 mutant cells (wt, T315I, M351T or E255K). […] Blood was drawn from the femoral vein or tail vein every 6th day and blast cell count determined and graphically represented.

4910 = assay: Matrigel invasion assay (modified Boyden chamber), 4910; format: cell-based, human; details: cells treated 48 h
Protocol: (§6) The in vitro invasiveness of 4910, 5310 and U87 glioma cells and MDAMB231 and ZR71 breast cancer cells in the presence of specified concentrations of compounds were assessed using a modified Boyden chamber assay. Cells were treated with these compounds for 48 h. 1x10^6 cells were suspended in 600µl of serum-free medium supplemented with 0.2% BSA and placed in the upper compartment of the transwell chambers (Coming Costar Fischer Scientific Cat #07-200-158, Pittsburgh PA) coated with Matrigel (0.7 mg/ml). The lower compartment of the chamber was filled with 200 µl of serum medium and the cells were allowed to migrate for 24 h. After incubation, the cells were fixed and stained with Hema-3 and quantified as previously described (Mohanam et al. 1993). The migrated cells were imaged microscopically to determine the reduction in invasiveness induced by the compounds of this invention.
(§7) The in vitro invasiveness of 4910, 5310 and U87 glioma cells and MDAMB231 and ZR71 breast cancer cells in the presence of specified concentrations of compounds were assessed using a modified Boyden chamber assay. Cells were treated with these compounds for 48 h.

MDA-MB-231 cells = assay: In vitro angiogenic assay (conditioned media on human dermal endothelial cells), MDA-MB-231; format: cell-based; details: control condition and after radiation
Protocol: as §2

ZR-71 cells = assay: In vitro angiogenic assay (conditioned media on human dermal endothelial cells), ZR-71; format: cell-based
Protocol: as §2

U87 cells = assay: Western blot analysis for AKT, ERK and Pi3k, U87; format: cell-based; details: decrease was enhanced after radiation
Protocol: as §1

[3] = test system: K562 luciferase expressing cells; assay: Leukemic survival study, K562 luciferase expressing cells implanted intraperitoneally; format: in vivo, nude mice
ZR-71 = assay: Matrigel invasion assay (modified Boyden chamber), ZR-71; format: cell-based; details: cells treated 48 h
Protocol: as §6, §7

K5621uc cells = assay: Drug temporal penetrance (Tp) after stopping drug treatment; format: in vivo, nude mice; details: AN019 20mg/kg, AN024 20mg/kg, Imatinib 10mg/kg, daily ip from day 15, stopped on day 35, imaged till day 45
Protocol: The temporal penetrance was calculated applying the following equation, Tp=. (((P)/(n))a -((P)/(n))ter)/(((P)/(n))a -((P)/(n))b) [formula]
Where: • P=photon counts at day 'a', day 'ter', or day 'b' where 'a' is the day when drug treatment was stopped and 'ter' is the day when the experiment was terminated and 'b' is the day where P is minimum after day a but before day 'ter'. • n=number of animals alive when P was measured.
The animals were imaged at 6 day intervals post transplantation. […] Drug treatment was stopped on day 35 and animals were imaged till day 45, and calculated as described in methods.

5310 = assay: Matrigel invasion assay (modified Boyden chamber), 5310; format: cell-based; details: cells treated 48 h
Protocol: as §6, §7

4910 cells = assay: Western blot analysis for AKT, ERK and Pi3k, 4910; format: cell-based, human; details: decrease enhanced after radiation
Protocol: as §1

Baf3T315I = assay: In vivo anti-leukemic activity, blast cell count in blood smears, Baf3T315I implanted nude mice; details: Imatinib 10mg/kg, AN019 20mg/kg, AN024 20mg/kg, oral gavage or ip from day 15; up to day 42
Excerpt: as §3, §4, §5

5310 cells = assay: In vitro angiogenic assay (conditioned media on human dermal endothelial cells), 5310; format: cell-based; details: control conditions and after radiation
Protocol: as §2

Baf3E255K = assay: In vivo anti-leukemic activity, blast cell count in blood smears, Baf3E255K implanted nude mice; details: Imatinib 10mg/kg, AN019 20mg/kg, AN024 20mg/kg, oral gavage or ip from day 15; up to day 42
Excerpt: as §3, §4, §5

ZR71 = assay: Western blot analysis for AKT, ERK and Pi3k, ZR71; format: cell-based
Protocol: as §1

[4] = test system: 4910 human glioma xenograft cells; assay: Glioma radiation study, intracranially implanted 4910 cells; format: in vivo, Nude mice
Protocol: Nude mice were intracranially implanted with 4910 human glioma xenograft cells (1x10^6 cells). Ten days after implantation mice were treated with AN019, AN024 or temozolomide with or without radiation (5Gy/week). The experiment was terminated at day 40 post implantation.

[5] = test system: Glioma xenograft cells 4910; assay: In vitro angiogenic assay (conditioned media on human dermal endothelial cells), 4910; format: cell-based; details: 4910 cells, with and without radiation
Protocol: as §2

MDA-MB-231 = assay: Matrigel invasion assay (modified Boyden chamber), MDA-MB-231; format: cell-based; details: cells treated 48 h
Protocol: as §6, §7

U87 = assay: Matrigel invasion assay (modified Boyden chamber), U87; format: cell-based; details: cells treated 48 h
Protocol: as §6, §7

## Cc1ccc(NC(=O)c2cccc(S(=O)(=O)C(F)(F)F)c2)cc1Nc1nccc(-c2cccnc2)n1 [AN024]
[1]
  levels of pERK: reduction on pERK levels but to a lesser extent than AN019
K562
  Therapeutic index-LD50/ED50: 144
[2]; 5mg/kg
  De (drug effectiveness): 30.00%
[2]; 10mg/kg
  De (drug effectiveness): 85.00%
[2]; 20mg/kg
  De (drug effectiveness): 87.00%
[2]; 40mg/kg
  De (drug effectiveness): 90.00%
U87 glioma cells
  inhibition of angiogenesis: significant retardation in angiogenesis with an increase in inhibition after radiation
Baf3M351T
  blast cell count in blood smears: significant decrease in blast cell count and was superior to AN019 treatment at day 42
4910; 4910, with radiation
  +Radiation % Invasion: 39%
4910; 4910, without radiation
  -Radiation % Invasion: 56%
MDA-MB-231 cells
  inhibition of angiogenesis: only a slight inhibition was observed in control and radiation treatments
ZR-71 cells
  inhibition of angiogenesis: complete inhibition of angiogenesis
U87 cells
  ERK levels: slight decrease in ERK levels
[3]; drug treatment stopped at day 42, based on luminescence (Fig. 20)
  curative effect after withdrawal of drug treatment (animals cured at day 58): continued to show curative effect
[3]; drug treatment withdrawn on day 42 (Fig. 21)
  Blast cell count from blood smears after withdrawal of drug treatment: showed effectiveness after withdrawal of drug treatment
[3]; treatment from day 15 till day 42, then withdrawn, AN024 death determined to be other than leukemia
  mortality: showed mortality on day 38
[3]; treatment from day 15 till day 42, then withdrawn, AN024 on day 55
  animals showing no signs of leukemia / complete absence of leukemic symptoms: 8 of the 10 animals
ZR-71; ZR-71, with radiation
  +Radiation % Invasion: 45%
ZR-71; ZR-71, without radiation
  -Radiation % Invasion: 48%
K5621uc cells
  Tp (temporal penetrance): 2.4
5310; 5310, with radiation
  +Radiation % Invasion: 32%
5310; 5310, without radiation
  -Radiation % Invasion: 27%
4910 cells
  AKT levels: decrease in AKT levels
Baf3T315I
  blast cell count in blood smears: significant decrease in blast cell count and was superior to AN019 treatment at day 42
5310 cells
  inhibition of angiogenesis: inhibition of angiogenesis was seen in control conditions, whereas angiogenesis further inhibited after radiation treatment
Baf3E255K
  blast cell count in blood smears: significant decrease in blast cell count and was superior to AN019 treatment at day 42
ZR71; ZR71 (cell line by context), with and without radiation
  PI3k levels: decrease in PI3k levels after radiation
ZR71; ZR71, unirradiated and after radiation
  AKT levels: did not show any significant change under unirradiated conditions, whereas after radiation AN024 treated cells showed a decrease in AKT expression
[4]; with radiation (5Gy/week), terminated at day 40
  animals cured / no observable intracranial tumor: 7 of 10 animals
[4]; without radiation
  intracranial tumours (size, appearance): showed presence of intracranial tumours but the tumours were well defined and not showing diffuse edges
[4]; without radiation, treatment from ten days after implantation, terminated at day 40
  animals cured / complete absence of intracranial tumours: 3 of 10 animals
[5]
  inhibition of angiogenesis: significant inhibition of angiogenesis both with and without radiation
MDA-MB-231; MDA-MB-231, with radiation
  +Radiation % Invasion: 47%
MDA-MB-231; MDA-MB-231, without radiation
  -Radiation % Invasion: 43%
U87; U87, with radiation
  +Radiation % Invasion: 29%
U87; U87, without radiation
  -Radiation % Invasion: 53%
